Experimental data published in the supplement of paper PMC10307832.

Legend:
Assay in all cases: relative viability (nuclei count vs DMSO), 5 days (fraction); higher = more cells survive
AZD8055 + Bortezomib = compound: COc1ccc(-c2ccc3c(N4CCOC[C@@H]4C)nc(N4CCOC[C@@H]4C)nc3n2)cc1CO [AZD8055] + CC(C)C[C@H](NC(=O)[C@H](Cc1ccccc1)NC(=O)c1cnccn1)B(O)O [Bortezomib] (partner 0.002 µM)
In short: (§1)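 Lung cancer cell lines in 1536-well plates got either a single drug or a fixed anchor-drug dose together with five library-drug doses (not always all listed) in √10 steps, by pin tool, on the day after seeding. Nuclei were counted after 5 days, and relative viability is the treated-to-vehicle ratio of nuclei counts. Values are medians of duplicate plates.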

AZD8055 + Lapatinib = compound: COc1ccc(-c2ccc3c(N4CCOC[C@@H]4C)nc(N4CCOC[C@@H]4C)nc3n2)cc1CO [AZD8055] + CS(=O)(=O)CCNCc1ccc(-c2ccc3ncnc(Nc4ccc(OCc5cccc(F)c5)c(Cl)c4)c3c2)o1 [Lapatinib] (partner 2 µM)
In short: as §1

AZD8055 + AZD7762 = compound: COc1ccc(-c2ccc3c(N4CCOC[C@@H]4C)nc(N4CCOC[C@@H]4C)nc3n2)cc1CO [AZD8055] + NC(=O)Nc1cc(-c2cccc(F)c2)sc1C(=O)N[C@H]1CCCNC1 [AZD7762] (partner 0.2 µM)
In short: as §1

AZD8055 + Decitabine = compound: COc1ccc(-c2ccc3c(N4CCOC[C@@H]4C)nc(N4CCOC[C@@H]4C)nc3n2)cc1CO [AZD8055] + Nc1ncn([C@H]2C[C@H](O)[C@@H](CO)O2)c(=O)n1 [Decitabine] (partner 2 µM)
In short: as §1

Cell Line | relative viability (AZD8055 + Bortezomib; first compound 0.01 µM) | relative viability (AZD8055 + Bortezomib; first compound 0.03162 µM) | relative viability (AZD8055 + Bortezomib; first compound 0.1 µM) | relative viability (AZD8055 + Bortezomib; first compound 0.3162 µM) | relative viability (AZD8055 + Bortezomib; first compound 1 µM) | relative viability (AZD8055 + Lapatinib; first compound 0.01 µM) | relative viability (AZD8055 + Lapatinib; first compound 0.03162 µM) | relative viability (AZD8055 + Lapatinib; first compound 0.1 µM) | relative viability (AZD8055 + Lapatinib; first compound 0.3162 µM) | relative viability (AZD8055 + Lapatinib; first compound 1 µM) | relative viability (AZD8055 + AZD7762; first compound 0.01 µM) | relative viability (AZD8055 + AZD7762; first compound 0.03162 µM) | relative viability (AZD8055 + AZD7762; first compound 0.1 µM) | relative viability (AZD8055 + AZD7762; first compound 0.3162 µM) | relative viability (AZD8055 + AZD7762; first compound 1 µM) | relative viability (AZD8055 + Decitabine; first compound 0.01 µM) | relative viability (AZD8055 + Decitabine; first compound 0.03162 µM) | relative viability (AZD8055 + Decitabine; first compound 0.1 µM) | relative viability (AZD8055 + Decitabine; first compound 0.3162 µM) | relative viability (AZD8055 + Decitabine; first compound 1 µM)
NCI-H322M | 1.24 | 1.34 | 1.17 | 0.894 | 1.11 | 0.536 | 0.551 | 0.51 | 0.5 | 0.466 | 0.51 | 0.454 | 0.434 | 0.426 | 0.432 | 0.71 | 0.601 | 0.617 | 0.555 | 0.588
NCI-H460 | 1.25 | 0.79 | 0.44 | 0.195 | 0.0935 | 1.72 | 0.629 | 0.43 | 0.137 | 0.0984 | 0.831 | 0.51 | 0.607 | 0.137 | 0.092 | 0.573 | 0.352 | 0.353 | 0.246 | 0.13
NCI-H596 | 0.856 | 0.722 | 0.697 | 0.459 | 0.497 | 1 | 0.682 | 0.661 | 0.535 | 0.463 | 1.04 | 0.776 | 0.632 | 0.567 | 0.489 | 1.06 | 0.841 | 0.698 | 0.571 | 0.528
NCI-H647 | 1.71 | 0.748 | 0.541 | 0.266 | 0.17 | 1.15 | 0.565 | 0.478 | 0.192 | 0.207 | 0.397 | 0.338 | 0.391 | 0.157 | 0.1 | 0.35 | 0.271 | 0.198 | 0.195 | 0.126
NCI-H650 | 0.658 | 0.511 | 0.681 | 0.343 | 0.291 | 0.838 | 0.73 | 0.58 | 0.341 | 0.319 | 0.84 | 0.875 | 1.02 | 0.667 | 0.323 | 0.35 | 0.278 | 0.333 | 0.29 | 0.275
NCI-H727 | 0.976 | 0.824 | 0.698 | 0.388 | 0.275 | 0.807 | 0.818 | 0.685 | 0.378 | 0.308 | 0.727 | 0.574 | 0.528 | 0.434 | 0.338 | 0.875 | 0.85 | 0.736 | 0.498 | 0.616
NCI-H838 | 1.37 | 0.513 | 0.302 | 0.227 | 0.298 | 1.04 | 0.656 | 0.352 | 0.237 | 0.336 | 1.06 | 0.932 | 0.85 | 0.711 | 0.659 | 0.513 | 0.343 | 0.305 | 0.278 | 0.296
NCI-H1355 | 1.23 | 1.06 | 0.9 | 0.309 | 0.315 | 0.866 | 0.78 | 0.703 | 0.257 | 0.274 | 0.856 | 0.663 | 0.594 | 0.288 | 0.248 | 0.395 | 0.335 | 0.321 | 0.248 | 0.231
NCI-H1437 | 0.611 | 0.549 | 0.422 | 0.206 | 0.209 | 1.03 | 0.76 | 0.549 | 0.221 | 0.183 | 1.16 | 1.1 | 1.12 | 0.568 | 0.494 | 0.612 | 0.553 | 0.509 | 0.363 | 0.302
NCI-H1651 | 1.12 | 0.914 | 0.924 | 0.609 | 0.696 | 0.844 | 0.569 | 0.585 | 0.403 | 0.324 | 0.499 | 0.431 | 0.424 | 0.237 | 0.161 | 0.69 | 0.319 | 0.481 | 0.416 | 0.347
NCI-H1666 | 0.932 | 0.65 | 0.62 | 0.483 | 0.469 | 0.587 | 0.488 | 0.488 | 0.355 | 0.362 | 0.945 | 1.09 | 0.908 | 0.76 | 0.698 | 0.744 | 0.685 | 0.627 | 0.702 | 0.685
NCI-H1734 | 0.954 | 0.729 | 0.552 | 0.278 | 0.274 | 1.17 | 0.789 | 0.57 | 0.308 | 0.242 | 0.549 | 0.361 | 0.273 | 0.181 | 0.15 | 0.551 | 0.344 | 0.433 | 0.299 | 0.234
NCI-H1755 | 0.98 | 0.879 | 0.75 | 0.459 | 0.359 | 1.07 | 0.815 | 0.935 | 0.565 | 0.457 | 0.625 | 0.401 | 0.416 | 0.364 | 0.33 | 0.714 | 0.636 | 0.691 | 0.506 | 0.461
NCI-H1792 | 0.93 | 0.771 | 0.827 | 0.173 | 0.189 | 1.02 | 0.838 | 0.808 | 0.15 | 0.131 | 0.589 | 0.291 | 0.21 | 0.0685 | 0.0707 | 0.585 | 0.38 | 0.338 | 0.093 | 0.124
NCI-H1915 | 1.09 | 0.961 | 1.02 | 0.663 | 0.652 | 1.1 | 0.876 | 1.01 | 0.655 | 0.522 | 0.777 | 0.48 | 0.686 | 0.425 | 0.454 | 0.272 | 0.251 | 0.258 | 0.254 | 0.244
NCI-H1975 | 0.409 | 0.303 | 0.282 | 0.206 | 0.216 | 1.04 | 0.601 | 0.468 | 0.273 | 0.251 | 0.732 | 0.636 | 0.466 | 0.328 | 0.348 | 0.458 | 0.371 | 0.312 | 0.238 | 0.237
